Assay [1] has as its system TNFα and IL-1β expression in RAW 264.7 macrophages. Nature of the assay: TNFα and IL-1β expression (qRT-PCR) in RAW 264.7 macrophages, palmitate and LPS two-hit model. Format: cell-based, murine. On the technique in general: Real-time PCR tracks product formation cycle by cycle.
Assay [2] deals with endotoxin-treated murine bone marrow derived macrophages. Nature of the assay: Cytokine expression in endotoxin-treated bone marrow derived macrophages. It counts as cell-based.
For another assay, the target named is T1, AhR (Homo sapiens, UniProt P35869).
T1 sequence (P35869 11-848): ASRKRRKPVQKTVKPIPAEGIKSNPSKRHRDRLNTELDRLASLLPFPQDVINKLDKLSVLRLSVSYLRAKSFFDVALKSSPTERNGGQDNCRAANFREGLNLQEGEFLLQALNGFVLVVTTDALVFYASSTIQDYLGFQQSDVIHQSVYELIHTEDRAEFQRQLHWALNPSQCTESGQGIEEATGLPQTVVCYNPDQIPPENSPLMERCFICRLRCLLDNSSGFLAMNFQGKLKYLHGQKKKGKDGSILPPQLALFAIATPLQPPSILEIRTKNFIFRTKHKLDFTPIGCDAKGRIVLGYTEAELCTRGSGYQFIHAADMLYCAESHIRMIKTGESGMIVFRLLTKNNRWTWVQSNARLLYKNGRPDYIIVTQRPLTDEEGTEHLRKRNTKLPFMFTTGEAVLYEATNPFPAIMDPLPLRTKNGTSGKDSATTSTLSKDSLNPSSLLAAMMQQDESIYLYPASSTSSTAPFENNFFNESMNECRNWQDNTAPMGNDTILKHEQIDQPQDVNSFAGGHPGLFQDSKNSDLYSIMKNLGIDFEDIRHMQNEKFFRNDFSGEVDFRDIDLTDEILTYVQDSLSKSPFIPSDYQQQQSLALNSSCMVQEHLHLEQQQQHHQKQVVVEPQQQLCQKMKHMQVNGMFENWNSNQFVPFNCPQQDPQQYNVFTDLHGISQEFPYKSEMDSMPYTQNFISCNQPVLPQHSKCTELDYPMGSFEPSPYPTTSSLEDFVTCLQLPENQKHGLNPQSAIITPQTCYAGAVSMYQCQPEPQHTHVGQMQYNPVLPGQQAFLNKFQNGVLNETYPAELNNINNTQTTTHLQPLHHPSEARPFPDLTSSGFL
Nature of the assay: Cell-based AhR reporter assays. The note with it: extent comparable to other endogenous Trp-derived ligands (e.g., kynurenine).

In assay [3] the test system is palmitate and LPS stimulated macrophages. Nature of the assay: Cytokine production in palmitate and LPS stimulated macrophages. It counts as cell-based.
The test system of assay [4] is colitis and fungal infection. The note with it: administration of indole-3-aldehyde; cited from earlier work.
For the next assay, the system named is NSAID enteropathy. The note with it: indole administration; cited from earlier work.
Where [5] appears, read: RAW 264.7, 1 mM AICAR 4 h, 300 μM palmitate 18 h, 10 ng/ml LPS 6 h.

With `NC(=O)c1ncn([C@@H]2O[C@H](COP(=O)(O)O)[C@@H](O)[C@H]2O)c1N` [AICAR, 5-aminoimidazole-4-carboxamide ribonucleotide], in assay [1] (setting [5]), the “attenuation of palmitate and LPS stimulated increase in IL-1β expression” value turned out to be 80%; the “attenuation of palmitate and LPS stimulated increase in TNFα expression” value stood at 30%.
For the molecule `Cc1ccccc1N=Nc1ccc(NC(=O)c2ccnn2C)c(C)c1` [CH223191], the “effect of AhR inhibitor on I3A's reduction of palmitate and LPS induced TNFα and IL-β expression” value in assay [1] (RAW 264.7, CH223191 5 μM added 10 min before 1 mM I3A) is given as “did not alter I3A's effect”.
Consider `NCCc1c[nH]c2ccccc12` [TA, tryptamine], for which, in assay [2], the “expression of IL-1, TNF-α, and MCP-1” value was “dose-dependently downregulate the expression of IL-1, TNF-α, and MCP-1”. Further, on AhR, the AhR activation result was “dose-dependently activate the AhR”. In assay [3], the “production of TNF-α, IL-1β, and MCP-1” value was “dose-dependently attenuated the production of TNF-α, IL-1β, and MCP-1”.
For the molecule `O=Cc1c[nH]c2ccccc12` [indole-3-aldehyde], in assay [4], the “IL-22 production from natural killer (NK) cells” value is “induced IL-22 production from natural killer (NK) cells” and the mucosal inflammation result is recorded as “protected against mucosal inflammation”.
For the molecule `c1ccc2[nH]ccc2c1` [indole], the “mucosal inflammation and injury” value with NSAID enteropathy is “decreased mucosal inflammation and injury”.

The values are drawn from US20240189279A1, “IMMUNOMODULATORY COMPOSITIONS AND METHODS OF USE THEREOF” (THE TEXAS A&M UNIVERSITY SYSTEM, priority 2022, published 2024).
